Results as given in paper PMC5218480 (PLoS ONE, 2017).

System: MV-4-11 cells
Experiment: Gene expression microarray analysis (Affymetrix PrimeView) and GSEA
Assay type: cell-based, human
Set-up: RFU PODN (11730768_x_at) / Fold change /veh PODN (11730768_x_at) / RFU LINC00158 (11744669_a_at) / Fold change /veh LINC00158 (11744669_a_at) / RFU DUSP10 (11751237_a_at) / Fold change /veh DUSP10 (11751237_a_at) / RFU ID3 (11757404_x_at) / Fold change /veh ID3 (11757404_x_at) / RFU PLEKHG5 (11737974_s_at) / Fold change /veh PLEKHG5 (11737974_s_at) / RFU LRRC4B (11730491_at) / Fold change /veh LRRC4B (11730491_at) / RFU GIMAP4 (11747438_a_at) / Fold change /veh GIMAP4 (11747438_a_at) / RFU KRT8 (11758183_x_at) / Fold change /veh KRT8 (11758183_x_at) / RFU CNN1 (11734310_a_at) / Fold change /veh CNN1 (11734310_a_at) / RFU VPS37D (11726825_at) / Fold change /veh VPS37D (11726825_at) / RFU C10orf10 (11716522_x_at) / Fold change /veh C10orf10 (11716522_x_at) / RFU KIR2DL2 /// KIR2DL4 /// KIR2DL5A /// KIR2DL5B /// KIR2DS1 /// KIR2DS2 /// KIR2DS3 /// KIR2DS4 /// KIR3DL3 /// KIR3DL3 /// KIR3DS1 (11738374_at) / Fold change /veh KIR2DL2 /// KIR2DL4 /// KIR2DL5A /// KIR2DL5B /// KIR2DS1 /// KIR2DS2 /// KIR2DS3 /// KIR2DS4 /// KIR3DL3 /// KIR3DL3 /// KIR3DS1 (11738374_at) / RFU C1QL1 (11718748_at) / Fold change /veh C1QL1 (11718748_at) / RFU TMPRSS4 (11747572_a_at) / Fold change /veh TMPRSS4 (11747572_a_at) / RFU HAMP (11756126_x_at) / Fold change /veh HAMP (11756126_x_at) / RFU RNFT2 (11725882_a_at) / Fold change /veh RNFT2 (11725882_a_at) / RFU NR4A2 (11747474_a_at) / Fold change /veh NR4A2 (11747474_a_at) / RFU ABCC12 (11746883_a_at) / Fold change /veh ABCC12 (11746883_a_at) / RFU TMEM136 (11760407_x_at) / Fold change /veh TMEM136 (11760407_x_at) / RFU CLDN22 /// WWC2 (11732394_at) / Fold change /veh CLDN22 /// WWC2 (11732394_at) / RFU HLA-DPB1 (11760878_x_at) / Fold change /veh HLA-DPB1 (11760878_x_at) / RFU SPINT1 (11716480_a_at) / Fold change /veh SPINT1 (11716480_a_at) / RFU GAP43 (11754022_s_at) / Fold change /veh GAP43 (11754022_s_at) / RFU A4GNT (11735810_at) / Fold change /veh A4GNT (11735810_at) / RFU PRB3 (11715151_x_at) / Fold change /veh PRB3 (11715151_x_at) / RFU TUBB4B (11761932_at) / Fold change /veh TUBB4B (11761932_at) / RFU CAPN14 (11732068_a_at) / Fold change /veh CAPN14 (11732068_a_at) / RFU TMCC2 (11721928_a_at) / Fold change /veh TMCC2 (11721928_a_at) / RFU IRGQ (11745062_a_at) / Fold change /veh IRGQ (11745062_a_at) / RFU FAM174B (11720279_a_at) / Fold change /veh FAM174B (11720279_a_at) / RFU TMPRSS4 (11748680_a_at) / Fold change /veh TMPRSS4 (11748680_a_at) / RFU FAM212B (11763350_a_at) / Fold change /veh FAM212B (11763350_a_at) / RFU PLEKHG5 (11743358_a_at) / Fold change /veh PLEKHG5 (11743358_a_at) / RFU ZSCAN30 (11745921_a_at) / Fold change /veh ZSCAN30 (11745921_a_at) / RFU CMKLR1 (11741424_a_at) / Fold change /veh CMKLR1 (11741424_a_at) / RFU LOC101060620 /// MAPK8IP1 (11723275_at) / Fold change /veh LOC101060620 /// MAPK8IP1 (11723275_at) / RFU SPTSSB (11747773_x_at) / Fold change /veh SPTSSB (11747773_x_at) / RFU PRSS12 (11739890_at) / Fold change /veh PRSS12 (11739890_at) / RFU BIN1 (11741810_x_at) / Fold change /veh BIN1 (11741810_x_at) / RFU WNT11 (11732464_a_at) / Fold change /veh WNT11 (11732464_a_at) / RFU C10orf10 (11716521_a_at) / Fold change /veh C10orf10 (11716521_a_at) / RFU C5orf56 (11738089_at) / Fold change /veh C5orf56 (11738089_at) / RFU CYB561 (11721691_x_at) / Fold change /veh CYB561 (11721691_x_at) / RFU ANKRD19P (11752326_a_at) / Fold change /veh ANKRD19P (11752326_a_at) / RFU OR2T12 /// OR2T33 /// OR2T8 (11738714_s_at) / Fold change /veh OR2T12 /// OR2T33 /// OR2T8 (11738714_s_at) / RFU VCAN (11748164_a_at) / Fold change /veh VCAN (11748164_a_at) / RFU JSRP1 (11732532_at) / Fold change /veh JSRP1 (11732532_at) / RFU KRTAP10-11 (11738290_x_at) / Fold change /veh KRTAP10-11 (11738290_x_at) / RFU MYO3A (11730013_a_at) / Fold change /veh MYO3A (11730013_a_at) / RFU EBF3 (11725865_a_at) / Fold change /veh EBF3 (11725865_a_at) / RFU CAMK2N1 (11719241_x_at) / Fold change /veh CAMK2N1 (11719241_x_at) / RFU C5orf56 (11738088_a_at) / Fold change /veh C5orf56 (11738088_a_at) / RFU OLFML3 (11715873_a_at) / Fold change /veh OLFML3 (11715873_a_at) / RFU LOC100653217 /// NTM (11731650_a_at) / Fold change /veh LOC100653217 /// NTM (11731650_a_at) / RFU MAPK11 (11762145_a_at) / Fold change /veh MAPK11 (11762145_a_at) / RFU FIZ1 (11724087_x_at) / Fold change /veh FIZ1 (11724087_x_at) / RFU OASL (11726364_x_at) / Fold change /veh OASL (11726364_x_at) / RFU SOX15 (11748057_x_at) / Fold change /veh SOX15 (11748057_x_at) / RFU CD79A (11719716_a_at) / Fold change /veh CD79A (11719716_a_at) / RFU HIST1H1D (11736915_at) / Fold change /veh HIST1H1D (11736915_at) / RFU CASKIN2 (11723855_a_at) / Fold change /veh CASKIN2 (11723855_a_at) / RFU LOC730098 (11760151_x_at) / Fold change /veh LOC730098 (11760151_x_at) / RFU OR4N2 (11742367_at) / Fold change /veh OR4N2 (11742367_at) / RFU PRRT2 (11749266_a_at) / Fold change /veh PRRT2 (11749266_a_at) / RFU SNX32 (11753110_a_at) / Fold change /veh SNX32 (11753110_a_at) / RFU CDHR5 (11726645_a_at) / Fold change /veh CDHR5 (11726645_a_at) / RFU RCAN1 (11760418_a_at) / Fold change /veh RCAN1 (11760418_a_at) / RFU FAM167A (11723789_a_at) / Fold change /veh FAM167A (11723789_a_at) / RFU FAM26E (11764081_at) / Fold change /veh FAM26E (11764081_at) / RFU ISYNA1 (11749810_s_at) / Fold change /veh ISYNA1 (11749810_s_at) / RFU ACY1 (11761880_at) / Fold change /veh ACY1 (11761880_at) / RFU 11764098_at / Fold change /veh 11764098_at / RFU SAMD14 (11745864_x_at) / Fold change /veh SAMD14 (11745864_x_at) / RFU NPB (11741838_a_at) / Fold change /veh NPB (11741838_a_at) / RFU TMPRSS6 (11731388_a_at) / Fold change /veh TMPRSS6 (11731388_a_at) / RFU KRTAP10-2 (11738614_at) / Fold change /veh KRTAP10-2 (11738614_at) / RFU ARHGAP8 /// PRR5-ARHGAP8 (11727945_x_at) / Fold change /veh ARHGAP8 /// PRR5-ARHGAP8 (11727945_x_at) / RFU KRTAP5-7 /// NADSYN1 (11734609_at) / Fold change /veh KRTAP5-7 /// NADSYN1 (11734609_at) / RFU RASL12 (11751679_a_at) / Fold change /veh RASL12 (11751679_a_at) / RFU CDKN2B (11736163_a_at) / Fold change /veh CDKN2B (11736163_a_at) / RFU PRF1 (11729649_at) / Fold change /veh PRF1 (11729649_at) / RFU, ZNF638 /// ZNF638-IT1 / Fold change vs veh, ZNF638 /// ZNF638-IT1 / RFU, PANK3 / Fold change vs veh, PANK3 / RFU, SH3YL1 / Fold change vs veh, SH3YL1 / RFU, ZEB2 / Fold change vs veh, ZEB2 / RFU, NRIP1 / Fold change vs veh, NRIP1 / RFU, PTTG1IP / Fold change vs veh, PTTG1IP / RFU, CAPN2 / Fold change vs veh, CAPN2 / RFU, MED14 / Fold change vs veh, MED14 / RFU, SNORA58 / Fold change vs veh, SNORA58 / RFU, C1orf63 / Fold change vs veh, C1orf63 / RFU, LRRFIP1 / Fold change vs veh, LRRFIP1 / RFU, NDUFAF7 / Fold change vs veh, NDUFAF7 / RFU, SLC12A2 / Fold change vs veh, SLC12A2 / RFU, IBTK / Fold change vs veh, IBTK / RFU, ESF1 / Fold change vs veh, ESF1 / Fold change vs veh, TMEM50B / RFU, TAOK1 / Fold change vs veh, TAOK1 / RFU, ACBD3 / Fold change vs veh, ACBD3 / RFU, TMA16 / Fold change vs veh, TMA16 / RFU, RWDD3 / Fold change vs veh, RWDD3 / RFU, BCAT1 / Fold change vs veh, BCAT1 / RFU, EDEM3 / Fold change vs veh, EDEM3 / RFU, TMEM33 / Fold change vs veh, TMEM33 / RFU, WDR75 / Fold change vs veh, WDR75 / RFU, AHCTF1 / Fold change vs veh, AHCTF1 / RFU, TFRC / Fold change vs veh, TFRC / RFU, ZDHHC17 / Fold change vs veh, ZDHHC17 / RFU, NOM1 / Fold change vs veh, NOM1 / RFU, ARL8B / Fold change vs veh, ARL8B / RFU, ZBTB11 / Fold change vs veh, ZBTB11 / RFU, TAMM41 / Fold change vs veh, TAMM41 / RFU, KIAA1704 /// LOC100996395 / Fold change vs veh, KIAA1704 /// LOC100996395 / RFU, ING1 / Fold change vs veh, ING1 / RFU, TRMT61B / Fold change vs veh, TRMT61B / RFU, FUBP3 / Fold change vs veh, FUBP3 / RFU, TP53 / Fold change vs veh, TP53 / RFU, TNKS2 / Fold change vs veh, TNKS2 / RFU, ZFP14 / Fold change vs veh, ZFP14 / RFU, ACTR2 / Fold change vs veh, ACTR2 / RFU, PPP3R1 / Fold change vs veh, PPP3R1 / RFU, PIK3R1 / Fold change vs veh, PIK3R1 / RFU, HNRNPA1 / Fold change vs veh, HNRNPA1 / RFU, RNF170 / Fold change vs veh, RNF170 / RFU, ZNF28 / Fold change vs veh, ZNF28 / RFU, RNGTT / Fold change vs veh, RNGTT / RFU, OGT / Fold change vs veh, OGT / RFU, BRD1 / Fold change vs veh, BRD1 / RFU, MARS / Fold change vs veh, MARS / RFU, ZNF655 / Fold change vs veh, ZNF655 / RFU, FAHD1 / Fold change vs veh, FAHD1 / RFU, BDP1 / Fold change vs veh, BDP1 / RFU, LRRCC1 / Fold change vs veh, LRRCC1 / RFU, ARID1A / Fold change vs veh, ARID1A / RFU, ZNF146 / Fold change vs veh, ZNF146 / RFU, ZNF330 / Fold change vs veh, ZNF330 / RFU, GPN3 / Fold change vs veh, GPN3 / RFU, C9orf123 / Fold change vs veh, C9orf123 / RFU, N4BP2L2 / Fold change vs veh, N4BP2L2 / RFU, ARFIP1 / Fold change vs veh, ARFIP1 / RFU, FAM179B / Fold change vs veh, FAM179B / RFU, BCL10 / Fold change vs veh, BCL10 / RFU, UHRF1BP1L / Fold change vs veh, UHRF1BP1L / RFU, BET1 / Fold change vs veh, BET1 / RFU, CNOT2 / Fold change vs veh, CNOT2 / RFU, ZNF268 / Fold change vs veh, ZNF268 / Fold change vs veh, ZNF507 / RFU, DGCR2 / Fold change vs veh, DGCR2 / RFU, WDSUB1 / Fold change vs veh, WDSUB1 / Fold change vs veh, HSP90B1 /// MIR3652 / RFU, ADSS / Fold change vs veh, ADSS / RFU, GK / Fold change vs veh, GK / RFU, ZNF148 / Fold change vs veh, ZNF148 / RFU, TAF9 / Fold change vs veh, TAF9 / RFU, SLC1A5 / Fold change vs veh, SLC1A5 / RFU, SLMO2 / Fold change vs veh, SLMO2 / RFU, ABCC4 / Fold change vs veh, ABCC4 / RFU, LOC101060439 /// RAP1B / Fold change vs veh, LOC101060439 /// RAP1B / RFU, RFX7 / Fold change vs veh, RFX7 / RFU, GTPBP10 / Fold change vs veh, GTPBP10 / RFU, CNEP1R1 / Fold change vs veh, CNEP1R1 / RFU, BIVM-ERCC5 /// ERCC5 / Fold change vs veh, BIVM-ERCC5 /// ERCC5 / RFU, ILF3 / Fold change vs veh, ILF3 / RFU 11762660_at / Fold change /veh 11762660_at / RFU VCAN (11757783_s_at) / Fold change /veh VCAN (11757783_s_at) / RFU DDX43 (11728927_at) / Fold change /veh DDX43 (11728927_at) / RFU KRT8 (11758188_x_at) / Fold change /veh KRT8 (11758188_x_at) / RFU NKD1 (11759106_at) / Fold change /veh NKD1 (11759106_at) / RFU SRD5A1 (11742802_a_at) / Fold change /veh SRD5A1 (11742802_a_at) / RFU TPSAB1 /// TPSB2 (11721975_s_at) / Fold change /veh TPSAB1 /// TPSB2 (11721975_s_at) / RFU GSTM3 (11746129_a_at) / Fold change /veh GSTM3 (11746129_a_at) / RFU IL23R (11737362_x_at) / Fold change /veh IL23R (11737362_x_at) / RFU TMEM51 (11727254_a_at) / Fold change /veh TMEM51 (11727254_a_at) / RFU PIWIL2 (11732686_x_at) / Fold change /veh PIWIL2 (11732686_x_at) / RFU ORM1 (11744905_x_at) / Fold change /veh ORM1 (11744905_x_at) / RFU CCDC152 (11743942_at) / Fold change /veh CCDC152 (11743942_at) / RFU ECM1 (11717891_a_at) / Fold change /veh ECM1 (11717891_a_at) / RFU IL23R (11748794_a_at) / Fold change /veh IL23R (11748794_a_at) / RFU TNFAIP8L3 (11732012_x_at) / Fold change /veh TNFAIP8L3 (11732012_x_at) / RFU MBOAT4 (11741988_at) / Fold change /veh MBOAT4 (11741988_at) / RFU 11764193_at / Fold change /veh 11764193_at / RFU TMEM53 (11763286_at) / Fold change /veh TMEM53 (11763286_at) / RFU MAGEB2 (11727129_at) / Fold change /veh MAGEB2 (11727129_at) / RFU TMEM200A (11744735_a_at) / Fold change /veh TMEM200A (11744735_a_at) / RFU CCDC152 (11751479_a_at) / Fold change /veh CCDC152 (11751479_a_at) / RFU FAM211A (11726209_a_at) / Fold change /veh FAM211A (11726209_a_at) / RFU RGS16 (11746705_a_at) / Fold change /veh RGS16 (11746705_a_at) / RFU VCAN (11755009_s_at) / Fold change /veh VCAN (11755009_s_at) / RFU RHOB (11743442_s_at) / Fold change /veh RHOB (11743442_s_at) / RFU RGS16 (11720943_a_at) / Fold change /veh RGS16 (11720943_a_at) / RFU RGS16 (11720944_at) / Fold change /veh RGS16 (11720944_at) / RFU, VPS4B / Fold change vs veh, VPS4B / RFU, CREB1 / Fold change vs veh, CREB1 / RFU, DNAJC13 / Fold change vs veh, DNAJC13 / RFU, GNAQ / Fold change vs veh, GNAQ / RFU, CDK5R1 / Fold change vs veh, CDK5R1 / RFU, ZRANB3 / Fold change vs veh, ZRANB3 / RFU, CUL4A / Fold change vs veh, CUL4A / RFU, CCNY / Fold change vs veh, CCNY / RFU, UFL1 / Fold change vs veh, UFL1 / RFU, COG3 / Fold change vs veh, COG3 / RFU, DIAPH2 / Fold change vs veh, DIAPH2 / RFU, SKA2 / Fold change vs veh, SKA2 / RFU, AFF3 / Fold change vs veh, AFF3 / RFU, LMF1 / Fold change vs veh, LMF1 / RFU, IPO11 / Fold change vs veh, IPO11 / RFU, DFFB / Fold change vs veh, DFFB / RFU, FOXP1 / Fold change vs veh, FOXP1 / RFU, CARD8 / Fold change vs veh, CARD8 / RFU, STRN3 / Fold change vs veh, STRN3 / RFU, ADK / Fold change vs veh, ADK / RFU, RASSF2 / Fold change vs veh, RASSF2 / RFU, WIPF1 / Fold change vs veh, WIPF1 / RFU, LARP1B / Fold change vs veh, LARP1B / RFU, RASA1 / Fold change vs veh, RASA1 / RFU, RB1 / Fold change vs veh, RB1 / RFU, PPFIA1 / Fold change vs veh, PPFIA1 / RFU, MAT2A / Fold change vs veh, MAT2A / RFU, CCT5 / Fold change vs veh, CCT5 / RFU, WDR92 / Fold change vs veh, WDR92 / RFU, CUX1 / Fold change vs veh, CUX1 / RFU, TTC7A / Fold change vs veh, TTC7A / RFU, TMEM135 / Fold change vs veh, TMEM135 / RFU, DEPTOR / Fold change vs veh, DEPTOR / RFU, CPM / Fold change vs veh, CPM / RFU, DNAJB6 / Fold change vs veh, DNAJB6 / RFU, CACNA2D3 / Fold change vs veh, CACNA2D3 / RFU, DTX4 / Fold change vs veh, DTX4 / RFU, TFCP2 / Fold change vs veh, TFCP2 / RFU, GMCL1 /// GMCL1P1 / Fold change vs veh, GMCL1 /// GMCL1P1 / RFU, AEBP2 / Fold change vs veh, AEBP2 / RFU, SNHG1 /// SNORD22 /// SNORD25 /// SNORD26 /// SNORD27 /// SNORD28 /// SNORD29 /// SNORD31 / Fold change vs veh, SNHG1 /// SNORD22 /// SNORD25 /// SNORD26 /// SNORD27 /// SNORD28 /// SNORD29 /// SNORD31 / Fold change (Aza/veh), C12orf56 (ProbeSet 11735607_a_at) / Fold change (ACY-1035/veh), C12orf56 (ProbeSet 11735607_a_at) / Fold change (Aza/veh), FGFR1OP (ProbeSet 11751329_s_at) / Fold change (ACY-1035/veh), FGFR1OP (ProbeSet 11751329_s_at) / Fold change (Aza/veh), VPS36 (ProbeSet 11739960_a_at) / Fold change (ACY-1035/veh), VPS36 (ProbeSet 11739960_a_at) / RFU SYPL1 (11715823_x_at) / Fold change /veh SYPL1 (11715823_x_at) / RFU IGFBP7 (11715501_s_at) / Fold change /veh IGFBP7 (11715501_s_at) / RFU REEP3 (11722064_at) / Fold change /veh REEP3 (11722064_at) / RFU IGLL1 (11728026_x_at) / Fold change /veh IGLL1 (11728026_x_at): dose or concentration left out as unconfirmed
Conditions: MV-4-11 cells, 48 hours

## Nc1ccc(-c2cccs2)cc1NC(=O)c1ccc2c(c1)cc(C1CC1)n2CCN1CCOCC1 [ACY-1035]
  RFU CLDN22 /// WWC2 (11732394_at): 8.03 RFU
